Results reported in patent publication US20230091047A1 (priority 2019, published 2023).
Like-named read-outs stand apart in the source and are kept apart here.

Columns and labels:
[1] = tested on: HBV (HepG2.117 cell line, inducibly HBV producing); experiment: Anti-HBV activity: intracellular HBV DNA by real-time PCR in HepG2.117 cells after 3 days of treatment; format: cell-based, hepatitis B virus
Method in brief: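 Readout is intracellular HBV DNA, measured by real-time PCR with HBV-specific primers and probe after 3 days of exposure to serial compound dilutions. Cells are the stable HepG2.117 line, where HBV replication is induced in the absence of doxycycline.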

[2] = in vitro; format: cell-based; conditions: human, HepG2 or HepG2.117 cells, ATPlite, mean value
Method in brief: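 Luminescent ATP quantitation served as the viability endpoint following a 3- or 4-day incubation with test compounds.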

[3] = Hepatitis B virus, HepG2.117, 72 h, HepG2.117 cells, 3 days of treatment, intracellular HBV DNA by real-time PCR; mean value; read-out: EC50 (μM, mean value)
[4] = 3-days incubation (unmarked values)
[5] = Hepatitis B virus, HepG2.117, 72 h, HepG2.117 cells, intracellular HBV DNA by real-time PCR, 3 days of treatment, mean value; read-out: EC50 (μM, mean value)
[6] = 3-days incubation (not marked with *)

Row | SMILES | EC50 [1, 3] | CC50 at 3 days [2, 4] | EC50 [1, 5] | CC50 at 3 days [2, 6] | CC50 at 4 days ([2]; 4-days incubation (values marked with *))
1 | CNC(=O)c1ccc(-n2c(NC3CCC34CCC4)nc3c(c2=O)C[C@@H](C)N(C(=O)c2ccc(Cl)c(Cl)c2)C3)cc1 (stereo partly drawn) [Compound C347, 4-[(6R)-7-(3,4-dichlorobenzoyl)-6-methyl-4-oxo-2-[(spiro[3.3]heptan-1-yl)amino]-5,6,7,8-tetrahydropyrido[3,4-d]pyrimidin-3(4H)-yl]-N-methylbenzamide] | 0.27 µM | 24.2 µM | – | – | –
2 | COc1ccc(CNc2nc3c(c(=O)n2-c2ccc(F)c(C#N)c2)CCN(C(=O)c2ccc(Cl)c(Cl)c2)C3)cc1 [Compound C77, 5-[7-(3,4-dichlorobenzoyl)-2-{[(4-methoxyphenyl)methyl]amino}-4-oxo-5,6,7,8-tetrahydropyrido[3,4-d]pyrimidin-3(4H)-yl]-2-fluorobenzonitrile] | 1.58 µM | > 50 µM | – | – | –
3 | CNC(=O)c1cc(-n2c(N[C@@H](C)c3ccc(OC(F)(F)F)cc3)nc3c(c2=O)C[C@@H](C)N(C(=O)c2ccc(Cl)c(Cl)c2)C3)n(C)n1 [Compound C618] | – | – | 0.09 µM | > 45 µM | –
4 | CNC(=O)c1ccc(-n2c(NC(C)c3ccc(C(F)(F)F)cc3)nc3c(c2=O)C[C@@H](C)N(C(=O)c2ccc(Cl)c(Cl)c2)C3)cc1 (stereo partly drawn) [Compound C413] | – | – | 0.15 µM | 6.5 µM | –
5 | CC(C)Nc1nc2c(c(=O)n1-c1ccc(C(=O)NCC(C)(C)C(=O)O)cc1)C[C@@H](C)N(C(=O)c1ccc(Cl)c(Cl)c1)C2 [Compound C214, 3-{4-[(6R)-7-(3,4-dichlorobenzoyl)-6-methyl-4-oxo-2-[(propan-2-yl)amino]-5,6,7,8-tetrahydropyrido[3,4-d]pyrimidin-3(4H)-yl]benzamido}-2,2-dimethylpropanoic acid] | 14.6 µM | > 50 µM | – | – | –
6 | CC(C)Nc1nc2c(c(=O)n1-c1ccc(S(C)(=O)=O)cc1)CCN(C(=O)c1ccc3ncn(C)c3c1)C2 [Compound C363] | > 50 µM | > 50 µM | – | – | –
7 | CNC(=O)c1ccc(-n2c(NCc3ncn(-c4ccccc4)n3)nc3c(c2=O)C[C@@H](C)N(C(=O)c2ccc(Cl)c(Cl)c2)C3)cc1 [Compound C556] | – | – | 0.57 µM | 25.6 µM | –
8 | COc1cc(-n2c(NC(C)C)nc3c(c2=O)CCN(C(=O)c2ccc(Cl)c(Cl)c2)C3)cc(S(C)(=O)=O)c1 [Compound C88, 7-(3,4-dichlorobenzoyl)-3-[3-(methanesulfonyl)-5-methoxyphenyl]-2-[(propan-2-yl)amino]-5,6,7,8-tetrahydropyrido[3,4-d]pyrimidin-4(3H)-one] | 4.99 µM | > 50 µM | – | – | –
9 | CNC(=O)c1ccc(-n2c(N[C@@H](C)c3ccc(OC)c(F)c3)nc3c(c2=O)C[C@@H](C)N(C(=O)c2ccc(Cl)c(Cl)c2)C3)cc1 (single isomer, unassigned) [Compound C416b] | – | – | 0.06 µM | 34.5 µM | –
10 | COc1ccc(CNc2nc3c(c(=O)n2-c2cccnc2)CCN(C(=O)c2ccc(Cl)c(Cl)c2)C3)cc1 [Compound C68, 7-(3,4-dichlorobenzoyl)-2-{[(4-methoxyphenyl)methyl]amino}-3-(pyridin-3-yl)-5,6,7,8-tetrahydropyrido[3,4-d]pyrimidin-4(3H)-one] | 0.66 µM | 22.4 µM | – | – | –
11 | Cc1nnc(-c2ccc(-n3c(NC(C)C)nc4c(c3=O)C[C@@H](C)N(C(=O)c3ccc(Cl)c(Cl)c3)C4)cc2)s1 [Compound C245, (6R)-7-(3,4-dichlorobenzoyl)-6-methyl-3-[4-(5-methyl-1,3,4-thiadiazol-2-yl)phenyl]-2-[(propan-2-yl)amino]-5,6,7,8-tetrahydropyrido[3,4-d]pyrimidin-4(3H)-one] | 0.17 µM | > 50 µM | – | – | –
12 | CNC(=O)c1ccc(-n2c(NC(C)C)nc3c(c2=O)C[C@@H](C)N(C(=O)c2cc(C)cc(F)c2)C3)cc1 [Compound C492] | – | – | 1.98 µM | > 50 µM | –
13 | CNC(=O)c1ccc(-n2c(NC(C)C)nc3c(c2=O)C[C@@H](C)N(C(=O)c2ccc(Br)cc2)C3)cc1 [Compound C563] | – | – | 0.26 µM | > 50 µM | –
14 | CNC(=O)c1ccc(-n2c(NC(C)C)nc3c(c2=O)C[C@@H](C)N(C(=O)c2n[nH]c4ccc(Cl)cc24)C3)cc1 [Compound C473] | – | – | > 25 µM | > 50 µM | –
15 | COc1ccc(CNc2nc3c(c(=O)n2C2CCOCC2)CCN(C(=O)c2ccc(Cl)c(Cl)c2)C3)cc1 [Compound C93, 7-(3,4-dichlorobenzoyl)-2-{[(4-methoxyphenyl)methyl]amino}-3-(oxan-4-yl)-5,6,7,8-tetrahydropyrido[3,4-d]pyrimidin-4(3H)-one] | 1.73 µM | 32 µM | – | – | –
16 | CNC(=O)c1ccc(-n2c(N3CCCOC(C)C3)nc3c(c2=O)C[C@@H](C)N(C(=O)c2ccc(Cl)c(Cl)c2)C3)cc1 (stereo partly drawn) [Compound C558] | – | – | 0.46 µM | > 50 µM | –
17 | CNC(=O)c1ccc(-n2c(NC(C)C)nc3c(c2=O)CCN(C(=O)c2ccc(Cl)c(Cl)c2)C3)cc1Cl [Compound C210, 2-chloro-4-[7-(3,4-dichlorobenzoyl)-4-oxo-2-[(propan-2-yl)amino]-5,6,7,8-tetrahydropyrido[3,4-d]pyrimidin-3(4H)-yl]-N-methylbenzamide] | 0.27 µM | > 50 µM | – | – | –
18 | CNC(=O)c1ccc(-n2c(N[C@@H](C)c3ccccn3)nc3c(c2=O)C[C@@H](C)N(C(=O)c2ccc(Cl)c(Cl)c2)C3)cc1 (single isomer, unassigned) [Compound C321, 4-[(6R)-7-(3,4-dichlorobenzoyl)-6-methyl-4-oxo-2-{[(1*S)-1-(pyridin-2-yl)ethyl]amino}-5,6,7,8-tetrahydropyrido[3,4-d]pyrimidin-3(4H)-yl]-N-methylbenzamide] | 0.94 µM | > 50 µM | – | – | –
19 | CNC(=O)c1ccc(-n2c(N[C@@H](C)c3ccccc3OC)nc3c(c2=O)C[C@@H](C)N(C(=O)c2ccc(Cl)c(Cl)c2)C3)cc1 (single isomer, unassigned) [Compound C402b] | – | – | 0.08 µM | 18.8 µM | –
20 | CC(C)Nc1nc2c(c(=O)n1-c1ccc(S(C)(=O)=O)cc1)CCN(C(=O)c1cc3ccc(F)cc3[nH]1)C2 [Compound C137, 7-(6-fluoro-1H-indole-2-carbonyl)-3-[4-(methanesulfonyl)phenyl]-2-[(propan-2-yl)amino]-5,6,7,8-tetrahydropyrido[3,4-d]pyrimidin-4(3H)-one] | 0.3 µM | > 50 µM | – | – | –
21 | CNC(=O)c1csc(-n2c(NC(C)C)nc3c(c2=O)C[C@@H](C)N(C(=O)c2ccc(Cl)c(Cl)c2)C3)n1 [Compound C379] | – | – | 0.22 µM | 22.1 µM | –
22 | C[C@@H]1Cc2c(nc(N[C@H](C)c3ccc(OC(F)(F)F)cc3)n(-c3ccc(-n4cccn4)cc3)c2=O)CN1C(=O)c1ccc(Cl)c(Cl)c1 (single isomer, unassigned) [Compound C463a] | – | – | 0.24 µM | > 50 µM | –
23 | CNc1noc2cc(-n3c(N[C@@H](C)c4ccc(OC(F)(F)F)cc4)nc4c(c3=O)C[C@@H](C)N(C(=O)c3ccc(Cl)c(Cl)c3)C4)ccc12 [Compound C616] | – | – | 0.19 µM | > 50 µM | –
24 | CNC(=O)c1ccc(-n2c(N[C@H]3CC3(C)C)nc3c(c2=O)C[C@@H](C)N(C(=O)c2ccc(Cl)c(Cl)c2)C3)cc1 [Compound C334, 4-[(6R)-7-(3,4-dichlorobenzoyl)-2-{[(1S)-2,2-dimethylcyclopropyl]amino}-6-methyl-4-oxo-5,6,7,8-tetrahydropyrido[3,4-d]pyrimidin-3(4H)-yl]-N-methylbenzamide] | 1.89 µM | > 50 µM | – | – | –
25 | CNC(=O)c1ccc(-n2c(N[C@H](C)c3ccncc3)nc3c(c2=O)C[C@@H](C)N(C(=O)c2ccc(Cl)c(Cl)c2)C3)cc1 (single isomer, unassigned) [Compound C375a] | 3.19 µM | > 50 µM | – | – | –
26 | COc1ccc(CNc2nc3c(c(=O)n2C2CCS(=O)(=O)CC2)CCN(C(=O)c2ccc(Cl)c(Cl)c2)C3)cc1 [Compound C119, 4-[7-(3,4-dichlorobenzoyl)-2-{[(4-methoxyphenyl)methyl]amino}-4-oxo-5,6,7,8-tetrahydropyrido[3,4-d]pyrimidin-3(4H)-yl]-1λ^6-thiane-1,1-dione] | 6.95 µM | 33.5 µM | – | – | –
27 | CNC(=O)c1cccc(-n2c(NC(C)C)nc3c(c2=O)C[C@@H](C)N(C(=O)c2ccc(Cl)c(Cl)c2)C3)c1 [Compound C232, 3-[(6R)-7-(3,4-dichlorobenzoyl)-6-methyl-4-oxo-2-[(propan-2-yl)amino]-5,6,7,8-tetrahydropyrido[3,4-d]pyrimidin-3(4H)-yl]-N-methylbenzamide] | 0.15 µM | > 50 µM | – | – | –
28 | COc1ccccc1-n1c(NCc2ccccn2)nc2c(c1=O)CCN(C(=O)c1ccc(Cl)c(Cl)c1)C2 [Compound C12, 7-(3,4-dichlorobenzoyl)-3-(2-methoxyphenyl)-2-{[(pyridin-2-yl)methyl]amino}-5,6,7,8-tetrahydropyrido[3,4-d]pyrimidin-4(3H)-one] | 5.95 µM | – | – | – | > 50 µM
29 | CNC(=O)c1ccc(-n2c(N[C@H](C)c3cnccn3)nc3c(c2=O)C[C@@H](C)N(C(=O)c2ccc(Cl)c(C(F)(F)F)c2)C3)cc1 (single isomer, unassigned) [Compound C665a] | – | – | 0.49 µM | > 50 µM | –
30 | CNC(=O)c1ccc(-n2c(NC(C)c3ncn(C)n3)nc3c(c2=O)C[C@@H](C)N(C(=O)c2ccc(Cl)c(Cl)c2)C3)cc1 (stereo partly drawn) [Compound C484] | – | – | 3.09 µM | > 50 µM | –
